Measured values from US7030087B2, “Synthetic approach to designed chemical structures” (priority 1996, dated 2006).

B1: bactericidal/permeability increasing polypeptide (protein, UniProt P17213 32-487, looked up)
Bactericidal …: VNPGVVVRISQKGLDYASQQGTAALQKELKRIKIPDYSDSFKIKHLGKGHYSFYSMDIREFQLPSSQISMVPNVGLKFSISNANIKISGKWKAQKRFLKMSGNFDLSIEGMSISADLKLGSNPTSGKPTITCSSCSSHINSVHVHISKSKVGWLIQLFHKKIESALRNKMNSQVCEKVTNSVSSELQPYFQTLPVMTKIDSVAGINYGLVAPPATTAETLDVQMKGEFYSENHHNPPPFAPPVMEFPAAHDRMVYLGLSDYFFNTAGLVYQEAGVLKMTLRDDMIPKESKFRLTTKFFGTFLPEVAKKFPNMKIQIHVSASTPPHLSVQPTGLTFYPAVDVQAFAVLPNSSLASLFLIGMHTTGSMEVSAESNRLVGELKLDRLLLELKHSNIGPFPVELLQDIMNYIVPILVLPRVNEKLQKGFPLPTPARVQLYNVVLQPHQNFLLFGADVVYK
notes: purified in three column-chromatography steps

Assays:
[1] = tested on: endotoxin from E. coli 055:B5; test: Limulus amoebocyte lysate assay (E-TOXATE), endotoxin neutralization; assay type: biochemical; details: for Endotoxin Neutralization, % neutralization: 5.0 × 10^−6 M Peptide; for Endotoxin Neutralization, % neutralization / Endotoxin Neutralizing Activity, % neutralization: 0.02 U (0.2 pg) endotoxin from E. coli 055:B5; for Endotoxin Neutralizing Activity, % neutralization: 5.0 × 10^−5 M peptide
Description: The peptides were tested for their ability to neutralize endotoxin. Quantitative endotoxin activities for these peptides were measured by Limulus amoebocyte lysate assay.
Limulus amoebocyte lysate assay: The ability of synthetic peptides to neutralize endotoxin was detected with the E-TOXATE kit manufactured by Sigma Chemicals (St. Louis, Mo.). […] Peptide or B/PI was incubated with LPS at room temperature for 5 min in 100 ul of a 1:2 dilution of pyrogen-free saline (pH 6.4). The reaction was started by addition of 100 ul of amoebocyte lysate and the final volume was 200 ul. Assuming a 10,000 molecular weight for LPS, the approximate molar ration of B/PI:LPS at neutralization was 3000 to 1.
The peptides were tested according to the method provided above. […] BG38L was used as a positive control in these experiments.

[2] = tested on: P. aeruginosa; test: Bactericidal activity assay; assay type: cell-based, Pseudomonas aeruginosa type 1; details: for Bactericidal Activity, % killing: 1.2 × 10^−7 M Peptide, 5 × 105 P. aeruginosa; for Bactericidal Activity, % killing at the effective dose: at the Ed for the same peptide; for Bactericidal Activity, Ed, Effective M dose: dose at which the % in brackets was found
Excerpt: Bacteria: P. aeruginosa type 1 is a clinical isolate maintained in the laboratory. The isolate remains a smooth strain and was serotyped by the scheme of Homma. The Pseudomonas strain was maintained by monthly transfer on blood agar plates.
The peptides can be assayed for bactericidal activity against a variety of organisms such as Pseudomonas aeruginosa type 1, P. cepacia ATCC 25608, E. coli B, and Staphylococcus aureus 502A by standard methods.
Pseudomonas aeruginosa type 1 is a clinical isolate. The isolate remains a smooth strain and was serotyped by the scheme of Homma (Jpn. J. Exp. Med. 46:329, 1976). A rough strain, E. coli B and S. aureus 502A were obtained from Paul Quie, University of Minnesota (Minneapolis, Minn.). The characteristics of the S. aureus strain have been described by Shinefield et al. (Amer. J. Dis. Chil. 105:646, 1963). Pseudomonas cepacia ATCC 25608 can be purchased from the ATCC. S. aureus and E. coli were maintained on nutrient agar plates and the Pseudomonas strains were maintained on blood agar plates.
Pyrogen-free solutions were used throughout the assay and all methods that follow. Log phase bacteria were prepared from a culture in brain heart infusion broth (Hovde et al. Infect. Immun. 54:142–148, 1986) and bacteria were washed and resuspended in saline with adjustment to an optical density at 650 nm to provide a yield of about 3×10^8 CFU/ml. Bacteria were diluted 1:10 in 0.08M citrate phosphate buffer, pH 5.6 or pH 7.0, for use in the assay. S. aureus rapidly lost viability in the pH 5.6 buffer and was studied only at pH 7.0. Bactericidal activity was determined by dose response over peptide concentrations ranging from about […] to about 4.1×10^−9M. Bactericidal activity was determined by dose response, preferably determining LD50 by linear regression.

[3] = Table 4, dose at which the % in brackets was found

Molecule	Endotoxin Neutralization, % neutralization ([1]; Table 4)	Bactericidal Activity, % killing [2]	Endotoxin Neutralization, % at the effective dose ([1]; Table 4, at the Ed) [%]	Endotoxin Neutralization, Ed, Effective M dose [1, 3] [µM]	Bactericidal Activity, % killing at the effective dose [2]	Bactericidal Activity, Ed, Effective M dose [2] [nM]	bactericidal activity (in words) [2]	Endotoxin Neutralizing Activity, % neutralization ([1]; Table 3)	Endotoxin Neutralization, % at the effective dose ([1]; Table 3, at the ED printed in the same cell) [%]	Endotoxin neutralization, ED, Effective M dose ([1]; Table 3, dose at which the % in brackets was found) [µM]	approximate molar ratio B/PI:LPS at neutralization ([1]; assuming a 10,000 molecular weight for LPS)
ANIKLSVKWKAQKRFLKMSINVDLSDGRELSLD [βpep-2]	55.3, n = 5%	18.8, n = 6%	–	–	–	–	–	–	–	–	–
ANIKLSVEFKLFKRHLKWKIIFKLNDGREFSLD [βpep-13]	100%	0%	22.5	1.2	(19.8), n = 3%	960	–	–	–	–	–
SIQDLNLSMKLFRKQAKWKIIVKLNDGRELSLD [βpep-22]	100%	35.5, n = 3%	21.3	1.2	–	–	greatest bactericidal activity	–	–	–	–
SIQDLNVSLKLFRKQAKWKIIVKLNDGRELSLD [βpep-21]	100%	13.0, n = 1%	40.3	1.2	–	–	–	–	–	–	–
ANIKLSVEMKFFKRHLKWKIIVKLNDGRELSLD [βpep-12]	100%	0%	29.5	1.2	(49.1), n = 5%	960	–	–	–	–	–
SIQDLNVSMKLFRKQAKWKINVKLNDGRELSLD [βpep-4]	14.7, n = 3%	37.6, n = 3%	–	–	–	–	greatest bactericidal activity	–	–	–	–
HIKELQVKMKAQKRFLKWSIIVKLNDGRELSLD [βpep-7]	77.7, n = 2%	39.1, n = 2%	–	–	–	–	greatest bactericidal activity	–	–	–	–
SIQDLNVSMKLFRKQAKWKILVKLNDGRELSLD [βpep-17]	100%	0%	28.9	1.2	40.1%	960	–	–	–	–	–
SIQDLNVSMXLFRKQAKWKIIVKLNDGRELSLD [βpep-20]	100%	0%	17.1	1.2	0.0%	480	–	–	–	–	–
SIQDLKVSMKLFRKQAKWKIIVKLNDGRELSLD [βpep-18]	100%	18.8, n = 1%	30.2	1.2	–	–	–	–	–	–	–
KFIVTLRVIKAGPHSPTAQIIVELKNGRKLSLD [βpep-5]	70.3, n = 3%	7.4, n = 7%	–	–	–	–	–	70.3, n = 3%	–	–	–
SIQKLNVSMKLFRKQAKWKIIVKLNDGRELSLD [βpep-19]	0%	62.5, n = 2%	12.4	16	–	–	greatest bactericidal activity	–	–	–	–
HIKELQVRWRAQKRFLRMSIIVKLNDGRELSLD [βpep-6]	79.3, n = 3%	8.2, n = 2%	–	–	–	–	–	–	–	–	–
SIQDLNVSMKLFRKQAKWKIIVKLNDGRELSLD [βpep-1]	42.8, n = 3%	32.0, n = 3%	–	–	–	–	greatest bactericidal activity	42.8, n = 3%	–	–	–
BG38: BG38L corresponds to amino acids 86–108 of B/PI; positive control (KISGKWKAQKRFLKMSGNFDLSI; UniProt P17213 117-139, looked up, fragment) [reference compound]	–	–	–	–	–	–	–	34.4, n = 5%	–	–	–
ANIKLSVEMKLFCRHLKCKIIVKLNDGRELSLD [βpep-10]	100%	0%	25.2	1.2	(20.9), n = 7%	960	–	–	–	–	–
SIQDLNVSMKLFRKQAKWKIILKLNDGRELSLD [βpep-15]	48.1 n = 1%	0%	–	–	23.9%	960	–	–	–	–	–
ANIKLSVEMKLFCY^DWKVCKHVKLNDGRELSLD [βpep-11]	100%	0%	29.5	1.2	(48.0), n = 4%	960	–	100%	29.5	1.2	–
ANIKLSVKWKAQKRFLKMSIIVKLNDGRELSLD [βpep-9]	100%	0%	32.3	1.2	(47.4), n = 11%	960	–	–	–	–	–
B1	–	–	–	–	–	–	–	–	–	–	3000 to 1
